Read-outs that look alike come from different tables or passages of the source.
Columns and labels:
Mcl-1 [1] = target: Mcl-1 (Homo sapiens (Human), UniProt Q07820); experiment: Fluorescence polarization competition assay (FPCA), Mcl-1 / FITC-Bak BH3 peptide; format: binding; conditions: for Mcl-1 Exp ΔG: ΔG=−RTlnKi from experimental Ki; for Ki: read-out: Mcl-1 Ki
Description: (§1) The tagged protein was initially purified from the crude cell lysate by immobilized metal affinity chromatography (IMAC) chromatography (GE Healthcare Life Sciences), and after dialysis to remove the imidazole the affinity tag was cleaved using PreScission Protease (GE Healthcare Life Sciences). A Sephacryl S-200 size exclusion column was used as a final purification step before the protein was concentrated with a 10,000 MWCO centifugal filter concentrator (Millipore).
(§2) Fluorescence polarization experiments were conducted using a BMG PHERAstar FS multimode microplate reader equipped with two PMTs for simultaneous measurements of the perpendicular and parallel fluorescence emission. The assays were performed in black polypropylene 384-well microplate (Costar) with a final volume of 20 microliter. […] Regression analysis was carried out using Origin (OriginLab, Northampton, Mass.) to fit the data to the Hill equation (1) to determine the initial binding affinity (KD) and the IC50 in the FPCA. For the fluorescence polarization competition titrations, an equation derived by Nikolovska-Coleska et al. was used to calculate the Ki from the IC50 data.
(§3) The target molecules were assayed for their abilities to disrupt the Mcl-1-Bak-BH3 PPI in a fluorescence polarization competition (FPC) assay with Mcl-1 and FITC-labeled Bak-BH3 peptide. Further details on the FPC assay can be found in the Supporting Information.

Mcl-1 [2] = experiment: as above; format: binding, human; conditions: for Exp. ΔG diff.: between Mcl-1 and Bcl-xL, positive favors Mcl-1; for Selectivity, Ki (Bcl-xL) divided by Ki (Mcl-1): Mcl-1 over Bcl-xL
Description: as §1, §2, §3

Bcl-xL = Bcl-xL (Homo sapiens (Human), UniProt Q07817); experiment: Fluorescence polarization competition assay, Bcl-xL; format: binding; conditions: for Bcl-xL Exp ΔG: ΔG from experimental Ki; for Ki: Ki from IC50 by Nikolovska-Coleska equation, NA = no activity, read-out: Bcl-xL Ki
Chain of Bcl-xL (Q07817 whole entry): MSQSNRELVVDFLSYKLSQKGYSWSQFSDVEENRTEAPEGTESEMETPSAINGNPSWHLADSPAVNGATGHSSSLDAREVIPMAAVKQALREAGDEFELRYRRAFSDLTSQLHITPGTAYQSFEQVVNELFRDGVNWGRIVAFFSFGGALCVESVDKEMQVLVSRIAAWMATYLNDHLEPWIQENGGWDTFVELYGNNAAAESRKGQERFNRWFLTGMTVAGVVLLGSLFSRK
Protocol: as §2

[3] = FPCA with FITC-Bak, Ki from IC50 by Nikolovska-Coleska equation

Chain of Mcl-1 (Homo sapiens (Human), UniProt Q07820) (Q07820 172-327): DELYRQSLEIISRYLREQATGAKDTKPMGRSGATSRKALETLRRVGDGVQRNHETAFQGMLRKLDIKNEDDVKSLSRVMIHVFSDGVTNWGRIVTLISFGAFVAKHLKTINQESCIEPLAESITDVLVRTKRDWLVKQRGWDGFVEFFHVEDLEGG

Row | SMILES | Mcl-1 Exp ΔG (Mcl-1 [1]) [kcal/mol] | Bcl-xL Exp ΔG (Bcl-xL) [kcal/mol] | Selectivity, Ki (Bcl-xL) divided by Ki (Mcl-1) (Mcl-1 [2]) | IC50 (Mcl-1 [1]; FPCA, read-out: IC50 disruption of Mcl-1-Bak-BH3 PPI) [µM] | Exp. ΔG diff. (Mcl-1 [2]) [kcal/mol] | Ki (Mcl-1 [1]; FPCA) [µM] | Ki (Bcl-xL) [µM] | Ki (Mcl-1 [1]; [3]) [µM]
1 | O=C(O)c1cc(S(=O)(=O)Nc2ccc(Br)cc2Br)c2ccccc2c1O [Compound 3o, 4-(N-(2,4-Dibromophenyl)sulfamoyl)-1-hydroxy-2-naphthoic Acid] |  |  | 5.5 |  |  | 0.42 | 2.31 ± 1.35 | 
2 | Cc1cc(Oc2ccc(N(C3CCCC3)S(=O)(=O)c3cc(C(=O)O)c(O)c4ccccc34)cc2)cc(C)c1Cl [Compound 3bk, 4-(N-(4-(4-Chloro-3,5-dimethylphenoxy)phenyl)-N-cyclopentylsulfamoyl)-1-hydroxy-2-naphthoic Acid] |  |  | 8.8 |  |  | 0.033 | 0.29 ± 0.05 | 
3 | O=C(O)c1cc(S(=O)(=O)Nc2ccccc2C(F)(F)F)c2ccccc2c1O [3u; TA-1-017] | -7.35 | -6.43 |  |  | 0.92 |  |  | 
4 | O=C(O)c1cc(S(=O)(=O)Nc2ccc3ccccc3c2)c2ccccc2c1O [3q; EW-2-057] | -7.28 | -5.68 |  |  | 1.60 |  |  | 
5 | COc1ccc(NS(=O)(=O)c2cc(C(=O)O)c(O)c3ccccc23)cc1 [Compound 3z, 1-Hydroxy-4-(N-(4-methoxyphenyl)sulfamoyl)-2-naphthoic Acid] |  |  | 6 |  |  |  | 71.9 ± 21 | 11.9 ± 2.5
6 | COc1ccc(NS(=O)(=O)c2cc(C(=O)O)c(O)c3ccccc23)cc1 [3z; MEL-3-018] | -6.71 | -5.65 |  |  | 1.06 |  |  | 
7 | O=C(O)c1cc(S(=O)(=O)Nc2ccc3ccccc3c2)c2ccccc2c1O [Compound 3q, 1-Hydroxy-4-(N-(naphthalen-2-yl)sulfamoyl)-2-naphthoic Acid] |  |  | 15 |  |  |  | 68.5 ± 36.3 | 4.58 ± 1.56
8 | O=C(O)c1cc(S(=O)(=O)Nc2ccc(Oc3cccc4ccccc34)cc2)c2ccccc2c1O [Compound 3bd, 1-Hydroxy-4-(N-(4-(naphthalen-1-yloxy)phenyl)sulfamoyl)-2-naphthoic Acid] |  |  | 3.7 |  |  |  | 0.22 ± 0.06 | 0.082
9 | O=C(O)c1cc(S(=O)(=O)Nc2ccccc2C(F)(F)F)c2ccccc2c1O [Compound 3u, 1-Hydroxy-4-(N-(2-(trifluoromethyl)phenyl)sulfamoyl)-2-naphthoic Acid] |  |  | 4.8 |  |  |  | 19.3 ± 9 | 4.05 ± 2.11
10 | Cc1cc(CCCNc2ccc(C(=O)O)c(O)c2)cc(C)c1Cl [LC-5-184 36] |  |  |  |  |  |  | 22.7 ± 4.08 | 15.2 ± 1.89
11 | CC(C)CN(c1ccc(OC(C)C)cc1)S(=O)(=O)c1cc(C(=O)O)c(O)c2ccccc12 [3ba; MEL-2-116] | -8.61 | -7.11 |  |  |  |  |  | 
12 | O=C(O)c1cc(S(=O)(=O)Nc2ccc(Br)cc2Br)c2ccccc2c1O [3o; SF-5-290] | -8.69 | -7.68 |  |  | 1.01 |  |  | 
13 | Cc1cc(Oc2ccc(N(Cc3ccccc3)S(=O)(=O)c3cc(C(=O)O)c(O)c4ccccc34)cc2)cc(C)c1Cl [3bl; JY-5-380] | -10.24 | -8.82 |  |  |  |  |  | 
14 | CC(C)CN(c1ccc(O)c(C(=O)O)c1)S(=O)(=O)c1ccccc1 [JY-5-296 18ba] |  |  |  |  |  |  | 49.3 ± 5.03 | 46.5 ± 9.82
15 | Cc1cc(Oc2ccc(N(CC(C)C)S(=O)(=O)c3cc(C(=O)O)c(O)c4ccccc34)cc2)cc(C)c1Cl [3bj; JY-5-377] | -9.68 | -9.23 |  |  | 0.45 |  |  | 
16 | CC(C)CN(c1ccc(C(=O)O)c(O)c1)S(=O)(=O)c1ccccc1 [4jc117-1 13aa] |  |  |  |  |  |  | 154 ± 27.6 | 192 ± 37.5
17 | O=C(O)c1cc(S(=O)(=O)Nc2cccc3ccccc23)c2ccccc2c1O [3p; EW-2-056] | -6.75 | -5.40 |  |  | 1.35 |  |  | 
18 | CC(C)CN(c1ccc(C(=O)O)c(O)c1)S(=O)(=O)c1ccc(-c2ccccc2)cc1 [4jc117-4 13ac] |  |  |  |  |  |  | 10.8 ± 2.55 | 4.11 ± 0.245
19 | O=C(O)c1cc(S(=O)(=O)Nc2cccc3ccccc23)c2ccccc2c1O [Compound 3p, 1-Hydroxy-4-(N-(naphthalen-1-yl)sulfamoyl)-2-naphthoic Acid] |  |  | 10 |  |  |  | 110 ± 45 | 11.2 ± 2
20 | CC(C)CN(c1ccc(O)c(C(=O)O)c1)S(=O)(=O)c1ccc(-c2ccccc2)cc1 [JY-5-300 18bc] |  |  |  |  |  |  | 13.9 ± 3.36 | 8.7 ± 2.05

More lines, main results first:

Row | Mcl-1 Exp ΔG (Mcl-1 [1]) [kcal/mol] | Bcl-xL Exp ΔG (Bcl-xL) [kcal/mol] | Selectivity, Ki (Bcl-xL) divided by Ki (Mcl-1) (Mcl-1 [2]) | IC50 (Mcl-1 [1]; FPCA, read-out: IC50 disruption of Mcl-1-Bak-BH3 PPI) [µM] | SMILES | Exp. ΔG diff. (Mcl-1 [2]) [kcal/mol] | Ki (Mcl-1 [1]; FPCA) [µM] | Ki (Bcl-xL) [µM] | Ki (Mcl-1 [1]; [3]) [µM]
21 | -9.45 | -8.61 |  |  | Cc1cc(Oc2ccc(NS(=O)(=O)c3cc(C(=O)O)c(O)c4ccccc34)cc2)cc(C)c1Cl [3bi; JY-5-371] | 0.84 |  |  | 
22 | -8.93 | -8.74 |  |  | Cc1cc(C)cc(Oc2ccc(NS(=O)(=O)c3cc(C(=O)O)c(O)c4ccccc34)cc2)c1 [3bf; SF-5-306] | 0.19 |  |  | 
23 |  |  | 2.4 |  | O=C(O)c1cc(S(=O)(=O)Nc2ccc(Oc3ccc(Cl)cc3Cl)cc2)c2ccccc2c1O [Compound 3bg, 4-(N-(4-(2,4-Dichlorophenoxy)phenyl)sulfamoyl)-1-hydroxy-2-naphthoic Acid] |  |  | 0.19 ± 0.02 | 0.079
24 | -6.38 | -4.73 |  |  | O=C(O)c1cc(S(=O)(=O)NCc2ccc(Cl)cc2)c2ccccc2c1O [3f; SF-5-264] | 1.65 |  |  | 
25 | -8.83 | -8.28 |  |  | Cc1ccc(Oc2ccc(NS(=O)(=O)c3cc(C(=O)O)c(O)c4ccccc34)cc2)cc1 [3bc; SF-5-301] | 0.55 |  |  | 
26 | -7.00 | -5.60 |  |  | O=C(O)c1cc(S(=O)(=O)NCC2CCCCC2)c2ccccc2c1O [3g; MEL-3-006] | 1.40 |  |  | 
27 |  |  | 3.8 |  | O=C(O)c1cc(S(=O)(=O)Nc2ccc(Oc3cccc(Br)c3)cc2)c2ccccc2c1O [Compound 3be, 4-(N-(4-(3-Bromophenoxy)phenyl)sulfamoyl)-1-hydroxy-2-naphthoic Acid] |  |  | 0.3 ± 0.04 | 0.114
28 | -7.58 | -5.85 |  |  | O=C(O)c1cc(S(=O)(=O)Nc2ccc(Br)cc2)c2ccccc2c1O [1; 3a] | 1.73 |  |  | 
29 | -9.47 | -8.89 |  |  | O=C(O)c1cc(S(=O)(=O)Nc2ccc(Oc3cccc(Br)c3)cc2)c2ccccc2c1O [3be; SF-5-303] | 0.58 |  |  | 
30 |  |  | 11 |  | O=C(O)c1cc(S(=O)(=O)NCC2CCCCC2)c2ccccc2c1O [Compound 3g, 4-(N-(Cyclohexylmethyl)sulfamoyl)-1-hydroxy-2-naphthoic Acid] |  |  | 77.6 ± 14.3 | 7.31 ± 1.42
31 |  |  | 16 |  | O=C(O)c1cc(S(=O)(=O)NCc2ccc(Cl)cc2)c2ccccc2c1O [Compound 3f, 4-(N-(4-Chlorobenzyl)sulfamoyl)-1-hydroxy-2-naphthoic Acid] |  |  | 338 ± 203 | 21 ± 3.9
32 | -7.29 | -6.31 |  |  | O=C(O)c1cc(S(=O)(=O)Nc2ccc([N+](=O)[O-])cc2)c2ccccc2c1O [3ac; MEL-3-005] | 0.98 |  |  | 
33 |  |  | 19 | 10.9 | O=C(O)c1cc(S(=O)(=O)Nc2ccc(Br)cc2)c2ccccc2c1O [Compound 3a, 4-(N-(4-bromophenyl)sulfamoyl)-1-hydroxy-2-naphthoic Acid] |  |  | 51.4 ± 31.3 | 2.76
34 |  |  | 4.1 |  | Cc1cc(Oc2ccc(NS(=O)(=O)c3cc(C(=O)O)c(O)c4ccccc34)cc2)cc(C)c1Cl [Compound 3bi, 4-(N-(4-(4-Chloro-3,5-dimethylphenoxy)phenyl)sulfamoyl)-1-hydroxy-2-naphthoic Acid] |  |  | 0.48 ± 0.05 | 0.117 ± 0.06
35 |  |  | 5.2 |  | O=C(O)c1cc(S(=O)(=O)Nc2ccc([N+](=O)[O-])cc2)c2ccccc2c1O [Compound 3ac, 1-Hydroxy-4-(N-(4-nitrophenyl)sulfamoyl)-2-naphthoic Acid] |  |  | 23.3 ± 2.5 | 4.49 ± 1.2
36 | -9.68 | -9.16 |  |  | O=C(O)c1cc(S(=O)(=O)Nc2ccc(Oc3ccc(Cl)cc3Cl)cc2)c2ccccc2c1O [3bg; SF-5-302] | 0.52 |  |  | 
37 |  |  | 1.4 |  | Cc1cc(C)cc(Oc2ccc(NS(=O)(=O)c3cc(C(=O)O)c(O)c4ccccc34)cc2)c1 [Compound 3bf, 4-(N-(4-(3,5-Dimethylphenoxy)phenyl)sulfamoyl)-1-hydroxy-2-naphthoic Acid] |  |  | 0.39 ± 0.1 | 0.284
